Source: US6525001B1, “Substituted pyrimidine and pyridine herbicides” (Mid-American Commercialization Corporation, priority 1997, dated 2003)

Legend:
Type in all cases: in vivo
[1] = test system: bermudagrass (Cynodon dactylon); assay: Test E pre-/postemergence/post directed; set-up: key: 0 is no effect; 100 is complete control; settings: PREEMERGENCE
In short: (§1)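 Injury was scored visually on a 0 to 100 scale (100 = complete control) 13 to 21 days after treatment of greenhouse-grown plants. Test chemicals, in a surfactant-containing non-phytotoxic solvent, were sprayed onto soil within a day of planting, onto plants at the two to four leaf stage, or directed at the base of the plants.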

[2] = test system: goosegrass (Eleusine indica); assay: Test E pre-/postemergence/post directed; set-up: key: 0 is no effect; 100 is complete control
In short: as §1

[3] = test system: large crabgrass (Digitaria sanguinalis); assay: Test E pre-/postemergence/post directed; set-up: key: 0 is no effect; 100 is complete control; settings: PREEMERGENCE
In short: as §1

[4] = test system: common purslane (Portulaca oleracea); assay: Test E pre-/postemergence/post directed; set-up: key: 0 is no effect; 100 is complete control
In short: as §1

[5] = test system: surinam grass (Brachiaria decumbens); assay: Test E pre-/postemergence/post directed; set-up: key: 0 is no effect; 100 is complete control; settings: PREEMERGENCE
In short: as §1

[6] = test system: common ragweed (Ambrosia elatior); assay: Test E pre-/postemergence/post directed; set-up: key: 0 is no effect; 100 is complete control; settings: PREEMERGENCE
In short: as §1

[7] = test system: johnsongrass (Sorghum halepense); assay: Test C; settings: PREEMERGENCE
[8] = test system: cocklebur (Xanthium strumarium); assay: Test C; set-up: key: 0 was no effect; 100 was complete control; settings: PREEMERGENCE
[9] = test system: redroot pigweed (Amaranthus retroflexus); assay: Test C; set-up: key: 0 was no effect; 100 was complete control; settings: PREEMERGENCE
[10] = test system: field bindweed (Convolvulus arvensis); assay: Test C; set-up: key: 0 was no effect; 100 was complete control; settings: PREEMERGENCE
[11] = test system: bermudagrass (Cynodon dactylon); assay: Test E pre-/postemergence/post directed
In short: as §1

[12] = test system: sandbur (Cenchrus echinatus); assay: Test E pre-/postemergence/post directed
In short: as §1

[13] = test system: large crabgrass (Digitaria sanguinalis); assay: Test E pre-/postemergence/post directed
In short: as §1

[14] = test system: Spanishneedles (Bidens bipinnata); assay: Test E pre-/postemergence/post directed
In short: as §1

[15] = test system: itchgrass (Rottboellia exaltata); assay: Test E pre-/postemergence/post directed
In short: as §1

[16] = test system: surinam grass (Brachiaria decumbens); assay: Test E pre-/postemergence/post directed
In short: as §1

[17] = test system: common groundsel (Senecio vulgaris); assay: Test E pre-/postemergence/post directed; settings: POSTEMERGENCE
In short: as §1

[18] = test system: common ragweed (Ambrosia elatior); assay: Test E pre-/postemergence/post directed; settings: POSTEMERGENCE
In short: as §1

[19] = test system: pitted morningglory (Ipomoea lacunosa); assay: Test E pre-/postemergence/post directed; settings: POSTEMERGENCE
In short: as §1

[20] = test system: alexandergrass (Brachiaria plantaginea); assay: Test E pre-/postemergence/post directed
In short: as §1

[21] = test system: johnson grass (Sorghum halepense); assay: Test E pre-/postemergence/post directed
In short: as §1

Cc1cnc(-n2ccc(C(F)(F)F)n2)nc1Cc1cccc(C(F)(F)F)c1 [Example 2, 5-methyl-4-[[3-(trifluoromethyl)phenyl]methyl]-2-[3-(trifluoromethyl)-1H-pyrazol-1-yl]pyrimidine]
98: Plant response rating, Bermudagrass ([11]; PREEMERGENCE, Rate 32 g/ha) | Plant response rating, Large crabgrass ([13]; PREEMERGENCE, Rate 32 g/ha) | Plant response rating, Johnsongrass ([21]; PREEMERGENCE, Rate 64 g/ha)
85: Plant response rating, Johnsongrass ([21]; PREEMERGENCE, Rate 125 g/ha)
90: Plant response rating, Goosegrass ([2]; POSTEMERGENCE, Rate 250 g/ha) | Plant response rating, Sandbur ([12]; PREEMERGENCE, Rate 125 g/ha) | Plant response rating, Large crabgrass ([13]; POSTEMERGENCE, Rate 500 g/ha) | Plant response rating, Itchgrass ([15]; POSTEMERGENCE, Rate 250 g/ha) | Plant response rating, Surinam grass ([16]; PREEMERGENCE, Rate 64 g/ha) | Plant response rating, P. morninglory ([19]; Rate 250 g/ha) | Plant response rating, P. morninglory ([19]; Rate 500 g/ha) | Plant response rating, Alexandergrass ([20]; PREEMERGENCE, Rate 64 g/ha)
65: Plant response rating, Com. purslane ([4]; POSTEMERGENCE, Rate 32 g/ha) | Plant response rating, Com. purslane ([4]; POSTEMERGENCE, Rate 64 g/ha) | Plant response rating, Com. purslane ([4]; POSTEMERGENCE, Rate 125 g/ha) | Plant response rating, Sandbur ([12]; PREEMERGENCE, Rate 64 g/ha) | Plant response rating, Johnsongrass ([21]; PREEMERGENCE, Rate 32 g/ha)
30: Plant response rating, Field bindweed ([10]; Rate 70 g/ha) | Plant response rating, Alexandergrass ([20]; POSTEMERGENCE, Rate 64 g/ha) | Plant response rating, Alexandergrass ([20]; POSTEMERGENCE, Rate 125 g/ha)
75: Plant response rating, Goosegrass ([2]; POSTEMERGENCE, Rate 64 g/ha) | Plant response rating, Bermudagrass ([11]; POSTEMERGENCE, Rate 500 g/ha) | Plant response rating, Large crabgrass ([13]; POSTEMERGENCE, Rate 125 g/ha) | Plant response rating, Itchgrass ([15]; POSTEMERGENCE, Rate 125 g/ha) | Plant response rating, Itchgrass ([15]; PREEMERGENCE, Rate 64 g/ha) | Plant response rating, Itchgrass ([15]; PREEMERGENCE, Rate 125 g/ha) | Plant response rating, Com. groundsel ([17]; Rate 500 g/ha) | Plant response rating, Com. ragweed ([18]; Rate 125 g/ha) | Plant response rating, Com. ragweed ([18]; Rate 250 g/ha) | Plant response rating, Com. ragweed ([18]; Rate 500 g/ha)
100: Plant response rating, Bermudagrass ([1]; Rate 64 g/ha) | Plant response rating, Bermudagrass ([1]; Rate 125 g/ha) | Plant response rating, Bermudagrass ([1]; Rate 250 g/ha) | Plant response rating, Bermudagrass ([1]; Rate 500 g/ha) | Plant response rating, Goosegrass ([2]; PREEMERGENCE, Rate 64 g/ha) | Plant response rating, Goosegrass ([2]; PREEMERGENCE, Rate 125 g/ha) | Plant response rating, Goosegrass ([2]; PREEMERGENCE, Rate 250 g/ha) | Plant response rating, Goosegrass ([2]; PREEMERGENCE, Rate 500 g/ha) | Plant response rating, Large crabgrass ([3]; Rate 64 g/ha) | Plant response rating, Large crabgrass ([3]; Rate 125 g/ha) | Plant response rating, Large crabgrass ([3]; Rate 250 g/ha) | Plant response rating, Large crabgrass ([3]; Rate 500 g/ha) | Plant response rating, Com. purslane ([4]; PREEMERGENCE, Rate 32 g/ha) | Plant response rating, Com. purslane ([4]; PREEMERGENCE, Rate 64 g/ha) | Plant response rating, Com. purslane ([4]; PREEMERGENCE, Rate 125 g/ha) | Plant response rating, Com. purslane ([4]; PREEMERGENCE, Rate 250 g/ha) | Plant response rating, Com. purslane ([4]; PREEMERGENCE, Rate 500 g/ha) | Plant response rating, Surinam grass ([5]; Rate 125 g/ha) | Plant response rating, Surinam grass ([5]; Rate 250 g/ha) | Plant response rating, Surinam grass ([5]; Rate 500 g/ha) | Plant response rating, Com. ragweed ([6]; Rate 32 g/ha) | Plant response rating, Com. ragweed ([6]; Rate 64 g/ha) | Plant response rating, Com. ragweed ([6]; Rate 125 g/ha) | Plant response rating, Com. ragweed ([6]; Rate 250 g/ha) | Plant response rating, Com. ragweed ([6]; Rate 500 g/ha) | Plant response rating, Redroot pigweed ([9]; Rate 140 g/ha) | Plant response rating, Field bindweed ([10]; Rate 140 g/ha)
70: Plant response rating, Com. purslane ([4]; POSTEMERGENCE, Rate 250 g/ha) | Plant response rating, Com. purslane ([4]; POSTEMERGENCE, Rate 500 g/ha) | Plant response rating, Spanishneedles ([14]; POSTEMERGENCE, Rate 500 g/ha) | Plant response rating, Itchgrass ([15]; PREEMERGENCE, Rate 32 g/ha) | Plant response rating, Surinam grass ([16]; POSTEMERGENCE, Rate 250 g/ha)
20: Plant response rating, Bermudagrass ([11]; POSTEMERGENCE, Rate 64 g/ha) | Plant response rating, Sandbur ([12]; PREEMERGENCE, Rate 32 g/ha) | Plant response rating, Com. groundsel ([17]; Rate 64 g/ha) | Plant response rating, Com. groundsel ([17]; Rate 125 g/ha) | Plant response rating, Alexandergrass ([20]; POSTEMERGENCE, Rate 32 g/ha)
95: Plant response rating, Goosegrass ([2]; POSTEMERGENCE, Rate 500 g/ha) | Plant response rating, Goosegrass ([2]; PREEMERGENCE, Rate 32 g/ha) | Plant response rating, Itchgrass ([15]; POSTEMERGENCE, Rate 500 g/ha) | Plant response rating, Itchgrass ([15]; PREEMERGENCE, Rate 250 g/ha) | Plant response rating, Alexandergrass ([20]; POSTEMERGENCE, Rate 500 g/ha) | Plant response rating, Johnsongrass ([21]; POSTEMERGENCE, Rate 500 g/ha)
5: Plant response rating, Johnsongrass ([7]; Rate 35 g/ha) | Plant response rating, Johnsongrass ([7]; Rate 70 g/ha) | Plant response rating, Redroot pigweed ([9]; Rate 35 g/ha) | Plant response rating, Redroot pigweed ([9]; Rate 70 g/ha)
40: Plant response rating, Spanishneedles ([14]; POSTEMERGENCE, Rate 125 g/ha) | Plant response rating, Itchgrass ([15]; POSTEMERGENCE, Rate 32 g/ha) | Plant response rating, Itchgrass ([15]; POSTEMERGENCE, Rate 64 g/ha) | Plant response rating, Com. groundsel ([17]; Rate 250 g/ha)
60: Plant response rating, Goosegrass ([2]; POSTEMERGENCE, Rate 32 g/ha) | Plant response rating, Johnsongrass ([7]; Rate 140 g/ha) | Plant response rating, Spanishneedles ([14]; POSTEMERGENCE, Rate 32 g/ha) | Plant response rating, Spanishneedles ([14]; POSTEMERGENCE, Rate 64 g/ha) | Plant response rating, Johnsongrass ([21]; POSTEMERGENCE, Rate 64 g/ha) | Plant response rating, Johnsongrass ([21]; POSTEMERGENCE, Rate 125 g/ha)
80: Plant response rating, Sandbur ([12]; POSTEMERGENCE, Rate 500 g/ha) | Plant response rating, Large crabgrass ([13]; POSTEMERGENCE, Rate 250 g/ha) | Plant response rating, Spanishneedles ([14]; PREEMERGENCE, Rate 32 g/ha) | Plant response rating, Surinam grass ([16]; POSTEMERGENCE, Rate 500 g/ha) | Plant response rating, P. morninglory ([19]; Rate 32 g/ha) | Plant response rating, P. morninglory ([19]; Rate 64 g/ha) | Plant response rating, P. morninglory ([19]; Rate 125 g/ha) | Plant response rating, Alexandergrass ([20]; POSTEMERGENCE, Rate 250 g/ha) | Plant response rating, Johnsongrass ([21]; POSTEMERGENCE, Rate 250 g/ha)
50: Plant response rating, Bermudagrass ([11]; POSTEMERGENCE, Rate 250 g/ha) | Plant response rating, Sandbur ([12]; POSTEMERGENCE, Rate 250 g/ha) | Plant response rating, Surinam grass ([16]; POSTEMERGENCE, Rate 64 g/ha) | Plant response rating, Surinam grass ([16]; POSTEMERGENCE, Rate 125 g/ha) | Plant response rating, Surinam grass ([16]; PREEMERGENCE, Rate 32 g/ha) | Plant response rating, Com. ragweed ([18]; Rate 32 g/ha) | Plant response rating, Alexandergrass ([20]; PREEMERGENCE, Rate 32 g/ha)
0: Plant response rating, Cocklebur ([8]; Rate 35 g/ha) | Plant response rating, Field bindweed ([10]; Rate 35 g/ha)
10: Plant response rating, Cocklebur ([8]; Rate 140 g/ha) | Plant response rating, Bermudagrass ([11]; POSTEMERGENCE, Rate 32 g/ha) | Plant response rating, Sandbur ([12]; POSTEMERGENCE, Rate 64 g/ha) | Plant response rating, Sandbur ([12]; POSTEMERGENCE, Rate 125 g/ha) | Plant response rating, Johnsongrass ([21]; POSTEMERGENCE, Rate 32 g/ha)
35: Plant response rating, Bermudagrass ([11]; POSTEMERGENCE, Rate 125 g/ha) | Plant response rating, Large crabgrass ([13]; POSTEMERGENCE, Rate 32 g/ha) | Plant response rating, Large crabgrass ([13]; POSTEMERGENCE, Rate 64 g/ha) | Plant response rating, Surinam grass ([16]; POSTEMERGENCE, Rate 32 g/ha)
